Measurements published in patent publication US12479847B2 (DANA-FARBER CANCER INSTITUTE, INC., priority 2019, dated 2025).

What was measured:
Assay in all cases: KINOMEscan (ScanMAX) kinase profiling
Type in all cases: binding
panel of 468 kinases [1] = molecular target: T1, panel of 468 kinases (Homo sapiens, UniProt Q12851); details: MAP4K2; 1 μM; read-out: % control
T1 construct: purchased KINOMEscan (ScanMAX) service
T1 sequence (Q12851 1-820): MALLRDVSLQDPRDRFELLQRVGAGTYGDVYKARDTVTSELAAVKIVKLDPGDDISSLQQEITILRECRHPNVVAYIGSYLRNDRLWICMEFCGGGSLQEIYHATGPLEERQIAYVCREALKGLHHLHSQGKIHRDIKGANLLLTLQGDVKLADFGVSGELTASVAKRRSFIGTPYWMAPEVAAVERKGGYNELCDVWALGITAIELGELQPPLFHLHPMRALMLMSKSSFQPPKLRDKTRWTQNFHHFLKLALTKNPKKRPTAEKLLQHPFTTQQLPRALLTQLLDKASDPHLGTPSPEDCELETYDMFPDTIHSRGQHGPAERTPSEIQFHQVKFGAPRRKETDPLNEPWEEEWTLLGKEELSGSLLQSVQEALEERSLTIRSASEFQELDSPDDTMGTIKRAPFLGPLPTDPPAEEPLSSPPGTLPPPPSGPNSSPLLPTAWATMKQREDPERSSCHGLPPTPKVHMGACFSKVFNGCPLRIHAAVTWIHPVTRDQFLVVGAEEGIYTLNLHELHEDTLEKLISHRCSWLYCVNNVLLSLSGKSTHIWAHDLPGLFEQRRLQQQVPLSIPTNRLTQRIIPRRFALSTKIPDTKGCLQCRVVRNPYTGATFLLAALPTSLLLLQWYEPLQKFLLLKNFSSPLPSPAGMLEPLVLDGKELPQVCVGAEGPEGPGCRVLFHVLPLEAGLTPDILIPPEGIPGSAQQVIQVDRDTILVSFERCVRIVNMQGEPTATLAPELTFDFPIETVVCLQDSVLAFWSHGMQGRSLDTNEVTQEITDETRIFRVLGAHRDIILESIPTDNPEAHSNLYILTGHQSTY

panel of 468 kinases [2] = molecular target: T2, panel of 468 kinases (Homo sapiens, UniProt P78368); details: CSNK1G2; 1 μM; read-out: % control
T2 construct: purchased KINOMEscan (ScanMAX) service

panel of 468 kinases [3] = molecular target: T3, panel of 468 kinases (Homo sapiens, UniProt Q9BX84); details: TRPM6; 1 μM; read-out: % control
T3 construct: purchased KINOMEscan (ScanMAX) service

panel of 468 kinases [4] = molecular target: T4, panel of 468 kinases (Homo sapiens, UniProt O60674); details: JAK2(JH1domain-catalytic); 1 μM; read-out: % control
T4 construct: purchased KINOMEscan (ScanMAX) service

panel of 468 kinases [5] = molecular target: T5, panel of 468 kinases (Homo sapiens, UniProt P08069); details: IGF1R; 1 μM; read-out: % control
T5 construct: purchased KINOMEscan (ScanMAX) service

panel of 468 kinases [6] = molecular target: T6, panel of 468 kinases (Homo sapiens, UniProt P36888, D835Y); details: FLT3(D835Y); 1 μM; read-out: % control
T6 construct: purchased KINOMEscan (ScanMAX) service
T6 sequence (P36888 27-993 D835Y): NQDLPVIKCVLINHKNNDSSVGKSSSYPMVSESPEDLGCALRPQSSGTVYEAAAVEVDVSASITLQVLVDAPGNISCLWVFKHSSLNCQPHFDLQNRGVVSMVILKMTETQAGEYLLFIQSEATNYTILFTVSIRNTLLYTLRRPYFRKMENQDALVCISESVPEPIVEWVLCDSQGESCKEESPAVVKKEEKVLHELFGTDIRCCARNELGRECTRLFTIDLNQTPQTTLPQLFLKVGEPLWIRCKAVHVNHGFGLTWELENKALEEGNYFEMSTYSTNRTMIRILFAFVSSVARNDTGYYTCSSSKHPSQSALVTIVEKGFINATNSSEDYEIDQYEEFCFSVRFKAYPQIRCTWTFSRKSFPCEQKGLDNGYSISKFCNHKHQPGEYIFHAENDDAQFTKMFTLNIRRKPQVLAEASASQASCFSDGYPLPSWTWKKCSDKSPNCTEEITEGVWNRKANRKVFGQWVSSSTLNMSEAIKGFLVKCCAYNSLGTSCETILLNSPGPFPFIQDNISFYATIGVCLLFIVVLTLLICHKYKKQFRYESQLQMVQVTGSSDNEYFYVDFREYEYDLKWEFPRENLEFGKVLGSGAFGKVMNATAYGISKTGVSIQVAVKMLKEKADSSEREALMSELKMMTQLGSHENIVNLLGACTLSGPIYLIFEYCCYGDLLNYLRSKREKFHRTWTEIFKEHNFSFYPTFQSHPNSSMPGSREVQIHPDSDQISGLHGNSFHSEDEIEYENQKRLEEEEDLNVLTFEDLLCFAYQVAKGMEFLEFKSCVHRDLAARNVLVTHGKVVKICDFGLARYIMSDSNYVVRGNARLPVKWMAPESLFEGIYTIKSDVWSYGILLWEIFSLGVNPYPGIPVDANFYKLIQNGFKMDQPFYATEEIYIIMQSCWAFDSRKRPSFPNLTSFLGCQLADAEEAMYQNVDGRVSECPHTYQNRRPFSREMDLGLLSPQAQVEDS

panel of 468 kinases [7] = molecular target: T7, panel of 468 kinases (Homo sapiens, UniProt P10721, A829P); details: KIT(A829P); 1 μM; read-out: % control
T7 construct: purchased KINOMEscan (ScanMAX) service

panel of 468 kinases [8] = molecular target: T8, panel of 468 kinases (Homo sapiens, UniProt Q8IU85); details: CAMK1D; 1 μM; read-out: % control
T8 construct: purchased KINOMEscan (ScanMAX) service

panel of 468 kinases [9] = molecular target: T9, panel of 468 kinases (Homo sapiens, UniProt Q8WU08); details: YANK1; 1 μM; read-out: % control
T9 construct: purchased KINOMEscan (ScanMAX) service

panel of 468 kinases [10] = details: 1 μM
panel of 468 kinases [11] = molecular target: T10, panel of 468 kinases (Homo sapiens, UniProt P21802); details: FGFR2; 1 μM; read-out: % control
T10 construct: purchased KINOMEscan (ScanMAX) service
T10 sequence (P21802 22-821): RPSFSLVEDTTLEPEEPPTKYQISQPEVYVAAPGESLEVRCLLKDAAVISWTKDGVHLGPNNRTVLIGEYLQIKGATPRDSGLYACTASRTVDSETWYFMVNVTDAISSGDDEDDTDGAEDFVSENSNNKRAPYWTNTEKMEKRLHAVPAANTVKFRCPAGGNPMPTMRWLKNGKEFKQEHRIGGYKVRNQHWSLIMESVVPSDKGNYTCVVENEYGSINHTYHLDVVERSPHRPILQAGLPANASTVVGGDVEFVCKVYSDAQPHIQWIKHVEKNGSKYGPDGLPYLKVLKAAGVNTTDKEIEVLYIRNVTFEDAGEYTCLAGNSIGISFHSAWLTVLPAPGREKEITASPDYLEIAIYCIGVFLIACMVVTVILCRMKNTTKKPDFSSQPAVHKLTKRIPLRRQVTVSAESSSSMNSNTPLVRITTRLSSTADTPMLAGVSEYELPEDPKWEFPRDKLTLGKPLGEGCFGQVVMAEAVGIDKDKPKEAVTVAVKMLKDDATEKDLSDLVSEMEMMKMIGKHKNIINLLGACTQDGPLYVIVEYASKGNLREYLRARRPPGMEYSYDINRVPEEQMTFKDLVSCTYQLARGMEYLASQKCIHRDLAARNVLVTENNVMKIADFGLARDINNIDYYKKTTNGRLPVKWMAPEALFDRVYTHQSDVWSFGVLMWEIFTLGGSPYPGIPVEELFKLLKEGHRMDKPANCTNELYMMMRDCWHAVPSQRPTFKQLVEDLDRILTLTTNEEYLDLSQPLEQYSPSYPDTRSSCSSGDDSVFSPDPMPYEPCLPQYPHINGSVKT

T7 sequence (P10721 26-976 A829P): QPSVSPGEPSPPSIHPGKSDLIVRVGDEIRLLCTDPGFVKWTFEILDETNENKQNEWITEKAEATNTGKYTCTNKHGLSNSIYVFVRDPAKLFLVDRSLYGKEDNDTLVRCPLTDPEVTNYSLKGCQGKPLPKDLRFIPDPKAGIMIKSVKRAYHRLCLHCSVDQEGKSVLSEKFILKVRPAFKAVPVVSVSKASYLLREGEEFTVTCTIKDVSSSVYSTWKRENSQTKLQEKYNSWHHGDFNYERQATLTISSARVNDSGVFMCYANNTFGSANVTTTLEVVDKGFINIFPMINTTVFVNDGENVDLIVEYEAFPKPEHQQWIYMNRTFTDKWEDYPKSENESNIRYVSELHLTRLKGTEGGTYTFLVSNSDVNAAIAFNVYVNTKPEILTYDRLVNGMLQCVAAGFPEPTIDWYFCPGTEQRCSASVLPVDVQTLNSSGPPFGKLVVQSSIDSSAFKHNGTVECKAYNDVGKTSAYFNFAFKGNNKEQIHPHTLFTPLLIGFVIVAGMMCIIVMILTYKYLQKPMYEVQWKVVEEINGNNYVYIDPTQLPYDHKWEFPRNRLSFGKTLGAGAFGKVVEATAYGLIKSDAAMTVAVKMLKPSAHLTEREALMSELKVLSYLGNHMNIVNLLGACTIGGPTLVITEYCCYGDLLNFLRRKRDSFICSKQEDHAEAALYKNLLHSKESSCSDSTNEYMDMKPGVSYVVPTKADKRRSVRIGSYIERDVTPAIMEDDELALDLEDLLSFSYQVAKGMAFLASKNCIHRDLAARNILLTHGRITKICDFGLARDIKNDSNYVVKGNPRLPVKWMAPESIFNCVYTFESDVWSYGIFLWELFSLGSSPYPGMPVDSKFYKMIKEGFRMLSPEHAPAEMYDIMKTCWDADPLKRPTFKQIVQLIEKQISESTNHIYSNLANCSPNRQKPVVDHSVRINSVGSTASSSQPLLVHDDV
T4 sequence (O60674 whole entry): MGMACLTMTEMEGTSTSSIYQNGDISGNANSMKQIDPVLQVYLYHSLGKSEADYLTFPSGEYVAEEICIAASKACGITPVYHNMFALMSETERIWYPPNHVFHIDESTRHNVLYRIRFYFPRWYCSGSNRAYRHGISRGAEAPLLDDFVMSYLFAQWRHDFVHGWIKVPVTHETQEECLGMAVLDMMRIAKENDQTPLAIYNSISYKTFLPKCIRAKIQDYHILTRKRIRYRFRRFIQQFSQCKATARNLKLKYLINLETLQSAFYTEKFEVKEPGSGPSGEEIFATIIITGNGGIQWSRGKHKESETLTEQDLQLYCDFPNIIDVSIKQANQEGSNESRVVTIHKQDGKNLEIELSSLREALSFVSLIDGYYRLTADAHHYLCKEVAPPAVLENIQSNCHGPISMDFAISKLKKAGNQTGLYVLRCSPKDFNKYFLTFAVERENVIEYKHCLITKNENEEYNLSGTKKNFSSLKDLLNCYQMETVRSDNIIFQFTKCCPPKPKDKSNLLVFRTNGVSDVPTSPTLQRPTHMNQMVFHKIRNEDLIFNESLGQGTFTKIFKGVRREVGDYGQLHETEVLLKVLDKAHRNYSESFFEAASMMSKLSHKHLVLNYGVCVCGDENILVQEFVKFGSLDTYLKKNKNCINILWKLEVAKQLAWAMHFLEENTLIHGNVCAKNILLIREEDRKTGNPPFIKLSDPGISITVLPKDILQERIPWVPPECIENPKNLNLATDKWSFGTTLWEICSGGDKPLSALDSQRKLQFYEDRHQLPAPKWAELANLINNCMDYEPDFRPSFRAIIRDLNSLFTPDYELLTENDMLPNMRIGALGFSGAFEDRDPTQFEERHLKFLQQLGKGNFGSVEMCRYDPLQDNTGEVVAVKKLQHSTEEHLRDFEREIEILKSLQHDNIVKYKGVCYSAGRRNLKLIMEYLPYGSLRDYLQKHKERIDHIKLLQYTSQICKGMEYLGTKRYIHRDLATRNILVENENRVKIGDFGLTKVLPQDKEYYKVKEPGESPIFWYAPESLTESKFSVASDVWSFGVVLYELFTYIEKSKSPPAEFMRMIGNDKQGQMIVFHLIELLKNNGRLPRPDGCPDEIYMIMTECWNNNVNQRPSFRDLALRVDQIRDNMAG
T9 sequence (Q8WU08 whole entry): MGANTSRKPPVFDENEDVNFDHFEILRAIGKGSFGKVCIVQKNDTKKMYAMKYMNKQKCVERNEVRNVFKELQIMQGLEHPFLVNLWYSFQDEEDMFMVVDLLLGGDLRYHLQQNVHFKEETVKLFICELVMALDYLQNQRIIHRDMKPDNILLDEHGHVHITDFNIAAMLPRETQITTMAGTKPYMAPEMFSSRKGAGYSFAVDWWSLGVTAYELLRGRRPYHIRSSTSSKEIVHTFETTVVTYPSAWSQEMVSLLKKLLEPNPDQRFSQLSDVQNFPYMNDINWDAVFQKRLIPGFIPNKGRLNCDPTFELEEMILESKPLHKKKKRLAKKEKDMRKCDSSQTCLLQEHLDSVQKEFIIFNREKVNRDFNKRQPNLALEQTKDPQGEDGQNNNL
T2 sequence (P78368 whole entry): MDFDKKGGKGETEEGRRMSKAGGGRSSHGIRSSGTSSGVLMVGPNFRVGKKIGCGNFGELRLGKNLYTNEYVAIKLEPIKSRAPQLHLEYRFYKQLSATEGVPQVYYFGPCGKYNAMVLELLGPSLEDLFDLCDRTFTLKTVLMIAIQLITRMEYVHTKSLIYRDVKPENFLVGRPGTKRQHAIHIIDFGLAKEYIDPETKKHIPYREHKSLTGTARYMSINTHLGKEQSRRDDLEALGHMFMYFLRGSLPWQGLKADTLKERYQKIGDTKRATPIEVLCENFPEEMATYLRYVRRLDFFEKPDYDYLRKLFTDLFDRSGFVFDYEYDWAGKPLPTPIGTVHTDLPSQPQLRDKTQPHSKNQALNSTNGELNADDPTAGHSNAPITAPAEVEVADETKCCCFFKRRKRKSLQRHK
T8 sequence (Q8IU85 whole entry): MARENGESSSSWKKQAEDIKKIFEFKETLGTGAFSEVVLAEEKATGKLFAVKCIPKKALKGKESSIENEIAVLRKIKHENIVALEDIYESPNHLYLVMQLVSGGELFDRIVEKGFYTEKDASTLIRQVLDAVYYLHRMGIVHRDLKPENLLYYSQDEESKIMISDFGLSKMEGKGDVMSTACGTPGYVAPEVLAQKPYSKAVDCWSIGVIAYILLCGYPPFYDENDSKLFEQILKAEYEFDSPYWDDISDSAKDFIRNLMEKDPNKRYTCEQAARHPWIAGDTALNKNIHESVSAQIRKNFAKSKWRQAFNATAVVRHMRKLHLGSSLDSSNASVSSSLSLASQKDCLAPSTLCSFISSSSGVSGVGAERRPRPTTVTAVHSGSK

| Structure (SMILES) | remaining binding at 1 µM (panel of 468 kinases [1]) [%] | remaining binding at 1 µM (panel of 468 kinases [2]) [%] | remaining binding at 1 µM (panel of 468 kinases [3]) [%] | remaining binding at 1 µM (panel of 468 kinases [4]) [%] | remaining binding at 1 µM (panel of 468 kinases [5]) [%] | remaining binding at 1 µM (panel of 468 kinases [6]) [%] | remaining binding at 1 µM (panel of 468 kinases [7]) [%] | remaining binding at 1 µM (panel of 468 kinases [8]) [%] | remaining binding at 1 µM (panel of 468 kinases [9]) [%] | % control (panel of 468 kinases [10]; EGFR(L747-E749del, A750P)) [%] | % control (panel of 468 kinases [10]; EGFR(L747-S752del, P753S)) [%] | % control (panel of 468 kinases [10]; EGFR(L747-T751del,Sins)) [%] | % control (panel of 468 kinases [10]; FLT3(ITD)) [%] | % control (panel of 468 kinases [10]; FLT3(ITD,D835V)) [%] | % control (panel of 468 kinases [10]; FLT3(ITD,F691L)) [%] | remaining binding at 1 µM (panel of 468 kinases [11]) [%] |
| --- | --- | --- | --- | --- | --- | --- | --- | --- | --- | --- | --- | --- | --- | --- | --- | --- |
| CNc1nc(Nc2ccc(S(=O)(=O)N3CCC(N4CCOCC4)CC3)cc2OC)nc2[nH]cc(Cl)c12 [Compound 12, 5-chloro-N2-(2-methoxy-4-((4-morpholinopiperidin-1-yl)sulfonyl)phenyl)-N4-methyl-7H-pyrrolo[2,3-d]pyrimidine-2,4-diamine] | 61 | 63 | 79 | 78 | 100 | 96 | 76 | 96 | 100 | 100 | 95 | 100 | 100 | 61 | 66 | 100 |
| CNc1nc(Nc2ccc(C(=O)N3CCC(N4CCOCC4)CC3)c3c2OCO3)nc2[nH]cc(Cl)c12 [Compound 75, (7-((5-chloro-4-(methylamino)-7H-pyrrolo[2,3-d]pyrimidin-2-yl)amino)benzo[d][1,3]dioxol-4-yl)(4-morpholinopiperidin-1-yl)methanone] | 6.2 | 2.9 | 85 | 24 | 89 | 14 | 50 | 47 | 100 | 100 | 87 | 100 | 33 | 2 | 2.8 | 97 |
| CNc1nc(Nc2ccc(P3(=O)CCN(C4CCOCC4)CC3)cc2OC)nc2[nH]cc(Cl)c12 [Compound 77, 4-(4-((5-chloro-4-(methylamino)-7H-pyrrolo[2,3-d]pyrimidin-2-yl)amino)-3-methoxyphenyl)-1-(tetrahydro-2H-pyran-4-yl)-1,4-azaphosphinane 4-oxide] | 39 | 96 | 88 | 58 | 100 | 47 | 78 | 39 | 98 | 92 | 99 | 100 | 81 | 19 | 40 | 100 |
